SMILES strings stand for the structures.

In general, IC50 refers to the concentration that inhibits the measured activity by half.

In one experiment the target is T1, Axl (Homo sapiens, UniProt P30530).
T1 construct: endogenous in cells; host or cells: HeLa cells
T1 sequence (P30530 26-894): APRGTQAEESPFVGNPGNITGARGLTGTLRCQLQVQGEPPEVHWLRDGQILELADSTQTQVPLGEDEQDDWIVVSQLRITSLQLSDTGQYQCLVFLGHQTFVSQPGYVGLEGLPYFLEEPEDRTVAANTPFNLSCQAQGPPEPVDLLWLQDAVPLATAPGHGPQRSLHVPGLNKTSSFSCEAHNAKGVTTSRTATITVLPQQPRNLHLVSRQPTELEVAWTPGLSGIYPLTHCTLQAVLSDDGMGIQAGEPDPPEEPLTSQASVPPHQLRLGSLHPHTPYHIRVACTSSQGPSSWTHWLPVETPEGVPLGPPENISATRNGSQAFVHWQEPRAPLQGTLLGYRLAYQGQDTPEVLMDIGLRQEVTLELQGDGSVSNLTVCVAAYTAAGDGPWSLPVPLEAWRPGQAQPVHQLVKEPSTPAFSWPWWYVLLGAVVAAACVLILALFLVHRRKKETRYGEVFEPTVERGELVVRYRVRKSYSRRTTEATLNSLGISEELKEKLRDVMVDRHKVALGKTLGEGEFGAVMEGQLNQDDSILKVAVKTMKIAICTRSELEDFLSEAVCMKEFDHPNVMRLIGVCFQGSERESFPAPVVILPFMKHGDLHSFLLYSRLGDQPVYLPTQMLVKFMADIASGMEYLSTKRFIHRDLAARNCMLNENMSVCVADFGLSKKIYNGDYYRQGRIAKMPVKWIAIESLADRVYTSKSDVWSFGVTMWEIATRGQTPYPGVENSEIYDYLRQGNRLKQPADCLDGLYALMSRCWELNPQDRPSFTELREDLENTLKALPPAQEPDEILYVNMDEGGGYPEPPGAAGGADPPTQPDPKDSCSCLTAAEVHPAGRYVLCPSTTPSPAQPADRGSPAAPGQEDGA
As to the kind of experiment: Phospho-Akt In-Cell Western Assay (inhibition of Axl activity). Format: cell-based. The following applies: Hela cells, Axl antibody cross-linking stimulation, phospho-Akt chemiluminescence normalized to cell number; compound of formula (Ib), Table 2. How it is done: The compounds of the invention were tested in the following assay for their ability to inhibit Axl activity.
Phospho-Akt In-Cell Western Assay
• Cell culture plate: 96 well assay plate (Corning 3610), white, clear bottom, tissue-culture treated. • Cells: Hela cells. • Starvation medium: For Axl stimulation: 0.5% FCS (fetal calf serum) in DMEM, plus Axl/Fc (extracellular domain of AXL fused to immunoglobulin Fc region) (R&D, 154-AL) 500 ng/mL. • For EGF (epidermal growth factor) stimulation: 0.5% FCS in DMEM (Dulbecco's modified Eagles medium). • Poly-L-Lysine 0.01% solution (the working solution): 10 μg/ml, dilute In PBS (phosphate buffered saline). • Axl antibody cross-linking: • 1st: Mouse anti-Axl (R&D, MAB154). • 2nd: Biotin-SP-conjugated AffiniPure goat anti-mouse IgG (H+L) (Jackson ImmunoResearch #115-065-003). • Fixing buffer: 4% formaldehyde in PBS. • Wash buffer: 0.1% TritonX-100 in PBS. • Quenching buffer: 3% H2O2, 0.1% Azide in wash buffer, Azide and hydrogen peroxide (H2O2) are added fresh. • Blocking buffer: 5% BSA in TBST (tris buffered saline plus 0.1% Tween 20). • Primary antibody: Rabbit anti-human Phospho-Akt antibody (Cell Signaling 9271): 1×250 diluted in blocking buffer. • Secondary antibody: HRP (horse radish peroxidase)-conjugated Goat anti-Rabbit secondary, stock solution: Jackson ImmunoResearch (Goat anti-Rabbit HRP, #111-035-144) 1:1 diluted in glycerol, store at −20° C. The working solution: 1×2000 dilution of stock in blocking buffer. • Chemiluminescent working solution (Pierce, 37030): SuperSignal ELISA (enzyme linked immunosorbant assay) Pico Chemiluminescent substrate. • Crystal Violet solution: Stock: 2.5% Crystal violet in methanol, filtered and kept at ambient temperature. The working solution: dilute the stock 1:20 with PBS immediately before use. • 10% SDS: working solution: 5% SDS (sodium dodecylsulfate), diluted in PBS Methods: Day 1:
A 96 well TC (tissue culture treated) plate was coated with 10 μg/mL poly-L-Lysine at 37° C. for 30 min, washed twice with PBS, and air-dried for 5 minutes before cells were added. Hela cells were seeded at 10,000 cells/well and the cells were starved in 100 μL starvation medium containing Axl/Fc for 24 hrs.
The cells were pre-treated with test compounds by adding 100 μL of 2× test compound to the starvation medium on the cells. The cells were incubated at 37° C. for 1 hr before stimulation.
The cells were stimulated by Axl-antibody cross-linking as follows: A 5×1^St/2nd Axl antibody mixture was made (37.5 μg/mL 1st/100 μg/mL 2nd) in starvation medium and nutated at 4° C. with thorough mixing for 1-2 hours for clustering. The resulting mix was warmed to 37° C. 50 μL of 5×Axl 1st/2nd of antibody cluster was added to the cells and the cells were incubated at 37° C. for 5 min.
After 5 minutes stimulation, the plate was flicked to remove medium and the plate was tapped onto paper towels. Formaldehyde (4.0% in PBS, 100 μL) was added to fix the cells and the cells were incubated at ambient temperature for 20 min without shaking.
The cells were washed with a plate washer buffer to remove the formaldehyde solution. The plate was flicked to removed excess wash buffer and tapped onto paper towels. Quenching buffer (100 μL) was added to each well and the cells were incubated at ambient temperature for 20 minutes without shaking.
The cells were washed with a plate washer buffer to remove the quenching buffer. Blocking buffer (100 μL) was added and the cells were incubated at ambient temperature for at least an hour with gentle shaking.
The cells were washed with a plate washer buffer and diluted primary antibody (50 μL) was added to each well (blocking buffer was added to the negative control wells instead). The plates were incubated overnight at 4° C. with gentle shaking.
The wash buffer was removed, diluted secondary antibody (100 μL) was added, and the cells were incubated at ambient temperature for 1 hour with gentle shaking. […]
With `Nc1nc(Nc2ccc3c(c2)C(=O)NCCCC3)n(-c2cc3c(nn2)-c2ccccc2CCC3)n1` [Compound 15, 1-(6,7-dihydro-5H-benzo[6,7]cyclohepta[1,2-c]pyridazin-3-yl)-N^5-(1(2H)-oxo-3,4,5,6-tetrahydrobenzo[c]azocin-9-yl)-1H-1,2,4-triazole-3,5-diamine], the IC50 lay within 1000 to 10000 nM.

The experiment is the same for the next values; noted with them: Hela cells, Axl antibody cross-linking stimulation, phospho-Akt chemiluminescence normalized to cell number; compounds of formula (Ia), Table 1.
As to `CON=C1CCCc2ncc(Nc3nc(N)n(-c4cc5c(nn4)-c4ccccc4CCC5)n3)cc2CC1` (racemic) [Compound 8, 1-(6,7-dihydro-5H-benzo[6,7]cyclohepta[1,2-c]pyridazin-3-yl)-N^3-(7-(methoxyimino)-5,6,7,8,9,10-hexahydrocycloocta[b]pyridin-3-yl)-1H-1,2,4-triazole-3,5-diamine], the IC50 was 1000 to 10000 nM.
Same read-out and setting: then `Nc1nc(Nc2ccc3c(c2)CCC(=O)NCC3)nn1-c1cc2c(nn1)-c1ccccc1CCC2` [Compound 1, 1-(6,7-dihydro-5H-benzo[6,7]cyclohepta[1,2-c]pyridazin-3-yl)-N^3-(4(1H)-oxo-2,3,5,6-tetrahydrobenzo[d]azocin-8-yl)-1H-1,2,4-triazole-3,5-diamine], with below 1000 nM.
Same read-out and setting: then `Nc1nc(Nc2ccc3c(c2)CCCN(C2CCCC2)CC3)nn1-c1cc2c(nn1)-c1ccccc1CCC2` [Compound 2, 1-(6,7-dihydro-5H-benzo[6,7]cyclohepta[1,2-c]pyridazin-3-yl)-N^3-(3-cyclopentyl-1,2,3,4,5,6-hexahydrobenzo[d]azocin-8-yl)-1H-1,2,4-triazole-3,5-diamine], with 1000 to 10000 nM; and `Nc1nc(Nc2ccc3c(c2)CCN(C2CCCC2)CCC3)nn1-c1cc2c(nn1)-c1ccccc1CCC2` [Compound 3, 1-(6,7-dihydro-5H-benzo[6,7]cyclohepta[1,2-c]pyridazin-3-yl)-N^3-(3-cyclopentyl-1,2,3,4,5,6-hexahydrobenzo[d]azocin-9-yl)-1H-1,2,4-triazole-3,5-diamine], with below 1000 nM.
Same read-out and setting: then `Nc1nc(Nc2ccc3c(c2)CC2CCC(C3)C2N2CCCC2)nn1-c1cc2c(nn1)-c1ccccc1CCC2` (centres unmarked) [Compound 4, 1-(6,7-dihydro-5H-benzo[6,7]cyclohepta[1,2-c]pyridazin-3-yl)-N^3-(7-pyrrolidin-1-yl-6,8-ethano-6,7,8,9-tetrahydro-5H-benzo[7]annulene-3-yl)-1H-1,2,4-triazole-3,5-diamine], with below 1000 nM.
As to `Nc1nc(Nc2ccc3c(c2)CC(N2CCCC2)CCCC3)nn1-c1cc2c(nn1)-c1ccccc1CCC2` (centres unmarked) [Compound 5, 1-(6,7-dihydro-5H-benzo[6,7]cyclohepta[1,2-c]pyridazin-3-yl)-N^3-(6-pyrrolidin-1-yl-5,6,7,8,9,10-hexahydrobenzo[8]annulene-3-yl)-1H-1,2,4-triazole-3,5-diamine], the IC50 lay in the range of 1000 to 10000 nM.
Same read-out and setting: then `Nc1nc(Nc2cnc3c(c2)CCC(=O)CCC3)nn1-c1cc2c(nn1)-c1ccccc1CCC2` [Compound 6, 1-(6,7-dihydro-5H-benzo[6,7]cyclohepta[1,2-c]pyridazin-3-yl)-N^3-(7-oxo-5,6,8,9,10-pentahydrocycloocta[b]pyridin-3-yl)-1H-1,2,4-triazole-3,5-diamine], with below 1000 nM; and `Nc1nc(Nc2cnc3c(c2)CCC(N2CCCC2)CCC3)nn1-c1cc2c(nn1)-c1ccccc1CCC2` (centres unmarked) [Compound 7, 1-(6,7-dihydro-5H-benzo[6,7]cyclohepta[1,2-c]pyridazin-3-yl)-N^3-(7-(pyrrolidin-1-yl)-5,6,7,8,9,10-hexahydrocycloocta[b]pyridin-3-yl)-1H-1,2,4-triazole-3,5-diamine], with below 1000 nM; and `Nc1nc(Nc2cnc3c(c2)CCC(O)CCC3)nn1-c1cc2c(nn1)-c1ccccc1CCC2` (centres unmarked) [Compound 9, 1-(6,7-dihydro-5H-benzo[6,7]cyclohepta[1,2-c]pyridazin-3-yl)-N^3-(7-hydroxy-5,6,7,8,9,10-hexahydrocycloocta[b]pyridin-3-yl)-1H-1,2,4-triazole-3,5-diamine], with 1000 to 10000 nM.
Same read-out and setting: then `Nc1nc(Nc2cnc3c(c2)CCC(=O)CCC3)nn1-c1cc(-c2ccncc2)c2c(n1)C1CCN2CC1` [Compound 10, 1-(1,4-ethano-8-pyridin-4-yl-1,2,3,4-tetrahydro-1,5-naphthyridin-6-yl)-N^3-(7-oxo-5,6,7,8,9,10-hexahydrocycloocta[b]pyridin-3-yl)-1H-1,2,4-triazole-3,5-diamine], with below 1000 nM.
As to `Nc1nc(Nc2ccc3c(c2)C(=O)NCCCC3)nn1-c1cc2c(nn1)-c1ccccc1CCC2` [Compound 11, 1-(6,7-dihydro-5H-benzo[6,7]cyclohepta[1,2-c]pyridazin-3-yl)-N^3-(1(2H)-oxo-3,4,5,6-tetrahydrobenzo[c]azocin-9-yl)-1H-1,2,4-triazole-3,5-diamine], the half-maximal inhibitory concentration (IC50) lay in the range of 1000 to 10000 nM.
The same measure, in the same setting: as for `Nc1nc(Nc2ccc3c(c2)CNCCCC3)nn1-c1cc2c(nn1)-c1ccccc1CCC2` [Compound 13, 1-(6,7-dihydro-5H-benzo[6,7]cyclohepta[1,2-c]pyridazin-3-yl)-N^3-(1,2,3,4,5,6-hexahydrobenzo[c]azocin-9-yl)-1H-1,2,4-triazole-3,5-diamine], the figure is 1000 to 10000 nM; as for `Nc1nc(Nc2ccc3c(c2)CCC2(CC3)OCCO2)nn1-c1ncnc2c1CCCCCC2` [Compound 14, 1-(5,6,7,8,9,10-hexahydrocycloocta[d]pyrimidin-4-yl)-N^3-(5,6,8,9-tetrahydrospiro[benzo[7]annulene-7,2′-[1,3]dioxolane]-3-yl)-1H-1,2,4-triazole-3,5-diamine], 1000 to 10000 nM.
